± gives the expanded uncertainty stated by the source.
Experiment: xn = mol fraction of the nth substance listed
Conditions: 100 kPa, Liquid; for mass density: 313.15 K, Vibrating tube method; for speed of sound: 318.15 K, Frequency=5 MHz, Pulse-echo method

OCCCCCO [1,5-pentanediol] + O
Conditions	mass density [kg/m3]	speed of sound [m/s]
x1 = 0.0005	–	1538 ± 1.2
x1 = 0.0015	–	1540.6 ± 1.2
x1 = 0.0027	–	1543.4 ± 1.2
x1 = 0.0039	–	1546.4 ± 1.2
x1 = 0.0049	–	1548.8 ± 1.2
x1 = 0.0058	–	1550.9 ± 1.2
x1 = 0.0069	–	1553.4 ± 1.2
x1 = 0.008	–	1556 ± 1.2
x1 = 0.0092	–	1558.5 ± 1.2
x1 = 0.0106	–	1561.6 ± 1.2
x1 = 0.0116	–	1563.7 ± 1.2
x1 = 0.0129	–	1566.4 ± 1.2
x1 = 0.0141	–	1568.7 ± 1.2
x1 = 0.0154	–	1571.2 ± 1.2
x1 = 0.0168	–	1573.9 ± 1.2
x1 = 0.0184	–	1576.8 ± 1.2
x1 = 0.0196	–	1578.9 ± 1.2
x1 = 0.0215	–	1582.2 ± 1.2
x1 = 0.0231	–	1584.8 ± 1.2
x1 = 0.0246	–	1587.2 ± 1.2
x1 = 0.0263	–	1589.8 ± 1.2
x1 = 0.0283	–	1592.8 ± 1.2
x1 = 0.0298	–	1594.9 ± 1.2
x1 = 0.0316	–	1597.5 ± 1.2
x1 = 0.0337	–	1600.2 ± 1.2
x1 = 0.0357	–	1602.8 ± 1.2
x1 = 0.0378	–	1605.4 ± 1.2
x1 = 0.0403	–	1608.2 ± 1.2
x1 = 0.043	–	1611.2 ± 1.2
x1 = 0.0456	–	1613.9 ± 1.2
x1 = 0.0487	–	1616.8 ± 1.2
x1 = 0.0503	–	1618.2 ± 1.2
x1 = 0.0516	–	1619.4 ± 1.2
x1 = 0.0548	–	1622.1 ± 1.2
x1 = 0.0584	–	1624.9 ± 1.2
x1 = 0.0657	–	1629.8 ± 1.2
x1 = 0.0682	–	1631.3 ± 1.2
x1 = 0.072	–	1633.3 ± 1.2
x1 = 0.0763	–	1635.4 ± 1.2
x1 = 0.0796	–	1636.9 ± 1.2
x1 = 0.0848	–	1639 ± 1.2
x1 = 0.0893	–	1640.5 ± 1.2
x1 = 0.0963	–	1642.5 ± 1.2
x1 = 0.1022	–	1643.9 ± 1.2
x1 = 0.1063	–	1644.7 ± 1.2
x1 = 0.1107	–	1645.4 ± 1.2
x1 = 0.1147	–	1646 ± 1.2
x1 = 0.1186	–	1646.4 ± 1.2
x1 = 0.1227	–	1646.8 ± 1.2
x1 = 0.1267	–	1647.1 ± 1.2
x1 = 0.1324	–	1647.4 ± 1.2
x1 = 0.138	–	1647.6 ± 1.2
x1 = 0.1421	–	1647.7 ± 1.2
x1 = 0.1467	–	1647.7 ± 1.2
x1 = 0.151	–	1647.7 ± 1.3
x1 = 0.1559	–	1647.6 ± 1.3
x1 = 0.1604	–	1647.4 ± 1.3
x1 = 0.1642	–	1647.3 ± 1.3
x1 = 0.1668	–	1647.1 ± 1.3
x1 = 0.17	–	1647 ± 1.3
x1 = 0.1746	–	1646.7 ± 1.3
x1 = 0.1759	–	1646.6 ± 1.3
x1 = 0.1805	–	1646.3 ± 1.3
x1 = 0.1834	–	1646.1 ± 1.3
x1 = 0.3	990.74 ± 1.2	–
x1 = 0.3343	989.99 ± 1.3	–
x1 = 0.4171	988.35 ± 1.4	–
x1 = 0.454	987.5 ± 1.4	–
x1 = 0.5003	986.6 ± 1.5	–
x1 = 0.5362	985.8 ± 1.5	–
x1 = 0.6177	984.4 ± 1.7	–
x1 = 0.6478	983.9 ± 1.7	–
x1 = 0.7025	983 ± 1.8	–
x1 = 0.7504	982.3 ± 1.9	–
x1 = 0.7927	981.6 ± 2	–
x1 = 0.8605	980.4 ± 2.1	–
x1 = 0.9004	979.7 ± 2.2	–
x1 = 0.9496	978.8 ± 2.3	–
x1 = 1	977.8 ± 2.1	–
